# Results reported in patent publication US12144910B2, “Methods of coating antimicrobial peptides on the biomaterial and the biomaterial coated thereby” (priority 2019, dated 2024).
# Like-named read-outs stand apart in the source and are kept apart here. Non-standard residues stand in square brackets, D forms with d. No end group written: not given here.
# How the values were obtained:
# [1] = test system: S. aureus
# Protocol: (§2) Minimum inhibitory concentration (MIC) and minimum bactericidal concentration (MBC). […] The suspended AMPs were then loaded into wells of 96-well microplates and incubated at 37° C. overnight with gentle agitation at 100 rpm. The absorbance was measured by SpectraMax 190 microplate reader at 600 nm. The remaining cfu in the mixture was counted after plating on agar plate. Minimum inhibitory concentration (MIC) was defined as the lowest AMP concentration to keep the solution with the same absorbance as that of culture medium without bacteria. […] Alternatively, the MIC of coated AMPs was also determined. […] The free form AMPs as well as surfactant were dissolved in 200 μl sterile media (cell culture medium or human urine) and used as a control for quantitation. The potency of antimicrobial activity was expressed as the dilution folds to reach the MIC, in which no bacteria grow in the medium. At least three independent experiments were performed to determine the value.
# [2] = test system: E. coli 23502
# Protocol: as §2
# [3] = test system: mouse red blood cells; experiment: Hemolytic assay; settings: dilution fold; free form, 1× = 8 μg AMP, 16 μg PXB and/or 25 μg SDS in 200 μl
# Protocol: The blood cells were pelleted and rinsed three times with 10% FBS in RPMI1640, and re-suspended in the same buffer. The erythrocytes (1.5×10^7 cells) were then added to the solution containing free dual AMP/surfactant or overnight released components from silicone discs in 200 μl and incubation at 37° C. for one hr. The supernatants (150 μl) after centrifugation were transferred to 96-well plate for the measurement of the absorbance of released hemoglobin by SpectraMax 190 microplate reader (Molecular Devices, CA, USA) at 414 nm. Percent hemolysis was calculated using the following formula: % hemolysis=[(A414sample−A414medium)/(A4140.1% Triton-X 100−A414medium)]. Zero and 100% hemolysis were determined in medium and 0.1% Triton-X 100, respectively.
# [4] = test system: E. coli ATCC 23502; experiment: Potency of antimicrobial activity as dilution folds to reach the MIC; type: cell-based; settings: for Potency (x) MIC to E. coli, Serum / Potency (x) MIC to E. coli, Urine: dilution fold, free form, 1× = 8 μg AMP; for Potency (x) MIC to E. coli, Serum: 16 μg PXB and/or 25 μg SDS in 200 μl serum; for Potency (x) MIC to E. coli, Urine: 16 μg PXB and/or 25 μg SDS in 200 μl urine
# Protocol: Minimum inhibitory concentration (MIC) and minimum bactericidal concentration (MBC). […] Alternatively, the MIC of coated AMPs was also determined. […] The urine and serum were changed daily. Two μl of the incubation urine or serum being replaced (containing released/free SAAP159+PXB) or its dilutions were dotted onto the top layer of the microbe-containing agar plates and incubated at 37° C. overnight, following which the assessment of formation of growth inhibition zone was carried out. Defined amounts of mixed antimicrobials were used as a standard for the quantitation of the released antimicrobials. The amount of antimicrobial mixture which was able to form visible inhibition zone on the agar plate is defined as one unit of antimicrobial activity. […] The absorbance at 600 nm was then determined by SpectraMax 190 microplate reader. Minimal inhibitory concentration (MIC), which is defined as the concentration of (diluted) sample serum or urine which is able to keep the absorbance of the bacteria-containing media no different to that of media only, was determined. The potency of antimicrobial activity, which is defined as the dilution fold of antimicrobial-containing urine or serum that achieves MIC, was also determined.
# [5] = test system: Human bladder carcinoma cell line (NTUB1); experiment: Cytotoxicity assay (WST-1); settings: for Potency (x) Cytotoxicity to NTUB1 IC50: dilution fold, free form, 1× = 8 μg AMP, 16 μg PXB and/or 25 μg SDS in 200 μl
# Protocol: NTUB1 cells were maintained at 37° C. in a humidified incubator under 5% CO2 atmosphere in RPMI1640 containing 10% FBS, 100 U/ml penicillin and 100 μg/ml streptomycin. The NTUB1 cells were seeded in the respective wells of a 96-well plate at a density of 1.5×10^4 cells/1000 for 24 hr. The cells were further incubated in 2000 free antimicrobial/surfactant or components released from silicone disc after overnight incubation. After 20 hr incubation, 900 of fresh culture medium and 100 of WST-1 agent (Roche, Basel, Switzerland) were added to the drained wells and incubated for two 2 hr before measuring the absorbance by SpectraMax 190 microplate reader at 450 nm. Percent of cytotoxicity was determined using the following formula: % cytotoxicity=[(A450sample−A450positive control)/(A450negative control−A450positive control)]. Positive control was NTUB1 cells only, whereas negative control was medium without cells.
# [6] = type: physicochemical; set-up: time stable in human urine: unit not given here; settings: for time stable in human urine: coated onto the microplate by SDS, examined under the microscope; for stability in urine: one-day incubation; for time stable in 10% FBS: single AMP coated by SDBS on polystyrene; for time stable in urine: single AMP coated by SDS (two-step) on polystyrene, SDS-PAGE
# [7] = test system: S. aureus; experiment: Inhibition zone assay on agar plate; type: cell-based, Staphylococcus aureus; settings: free AMP, 2 μl dotted on agar plate
# Protocol: (§1) Inhibition zone. Bacteria were cultured in Luria-Bertani broth and plated on Luria-Bertani agar for E. coli (ATCC 23502) and Pseudomonas aeruginosa (ATCC 27853) at 37° C. Staphylococcus aureus (ATCC 6538P) was cultured and plated in/on tryptic soy broth/agar. Candida albicans (ATCC 14053) were cultured in/on YM broth/agar at 30° C. Five ml of low melting agar (1%) mixed with 100 μl of overnight-cultured bacteria was spread on top of 1% regular agar plate. Two μl of antimicrobial peptides at various concentrations were dotted on the top layer of microbe-containing agar plates and incubated overnight for the development of inhibition zone.
# [8] = test system: P. aeruginosa 27853; experiment: Inhibition zone assay on agar plate; type: cell-based, Pseudomonas aeruginosa; settings: free AMP, 2 μl dotted on agar plate
# Protocol: as §1
# [9] = free AMP, LB, 3.5 × 10^5 cfu/ml
compound,measurement,setting,value
CC[C@H](C)[C@H](NC(=O)[C@H](CCCNC(=N)N)NC(=O)[C@H](CCCNC(=N)N)NC(=O)[C@H](CC(C)C)NC(=O)[C@H](Cc1c[nH]c2ccccc12)NC(=O)[C@H](C)NC(=O)[C@H](CCCCN)NC(=O)[C@@H](NC(=O)[C@H](CCCNC(=N)N)NC(=O)[C@H](CCCNC(=N)N)NC(=O)[C@H](CC(C)C)NC(=O)[C@@H](N)Cc1c[nH]c2ccccc12)[C@@H](C)CC)C(=O)N[C@@H](CCCCN)C(=O)N[C@@H](C)C(=O)O [RRIKA],MBC,[1],128 mg/L
same,MIC,[1],64 mg/L
same,MBC,[2]; 23502,128 mg/L
same,MIC,[2]; 23502,128 mg/L
"CCCCCCCCCCCCOS(=O)(=O)[O-].[Na+] [SDS, sodium dodecyl sulfate]",Potency (x) Hemolysis of RBC HC50,[3],1-2 x
same,"Potency (x) MIC to E. coli, Serum",[4],<1 x
same,"Potency (x) MIC to E. coli, Urine",[4],<1 x
same,bactericidal activity against E. coli 23502 in urine or in 10% FBS,"[4]; surfactant alone up to maximal amount (14 μg SDS, 25 μg SDBS) in 200 μl",did not exert bactericidal activity
same,cytotoxicity toward NTUB1 cells,[5]; 25 μg in 200 μl,99%
same,Potency (x) Cytotoxicity to NTUB1 IC50,[5],1-2 x
same,cytotoxicity toward NTUB1 cells,[5]; half of the total amount (of 25 μg in 200 μl),35%
same,cytotoxicity toward human bladder cells (NTUB1) (in words),[5]; maximal amount that may be coated and released (SDS 14 μg; AMP pairs 12 μg each) in 200 μl,low cytotoxicity
GRFKRFRKKFKKLFKKLSPVIPLLHLG (G[dR][dF][dK][dR][dF][dR][dK][dK][dF][dK][dK][dL][dF][dK][dK][dL][dS][dP][dV][dI][dP][dL][dL][dH][dL]G) [L-BMAP27],time stable in human urine,[6],at least three
GRFKRFRKKFKKLFKKLSPVIPLLHLG-OH (All in D form) (G[dR][dF][dK][dR][dF][dR][dK][dK][dF][dK][dK][dL][dF][dK][dK][dL][dS][dP][dV][dI][dP][dL][dL][dH][dL]G-OH) [D-BMAP27],time stable in human urine,[6],at least three
"H-FIHHIIGGLFSAGKAIHRLIRRRRR-OH [TP4, antimicrobial peptide Piscidins 4]",stability in urine,[6]; coated by SDBS on microplates,stable in urine
same,stability in urine,[6]; coated by SOS or SDSn on microplates,not those coated by SOS or SDSn
same,time stable in human urine,[6],at least three
"H-FIHHIIGGLFSAGKAIHRLIRRRRR-OH [TP4-A12,15I]",time stable in 10% FBS,[6],two
H-RRLIRLILRLLR-NH2 [RR12],antimicrobial activity by inhibition zone (in words),[7],very active
same,MBC,[1],4 mg/L
same,MIC,[1],4 mg/L
same,MBC,[2]; 23502,4 mg/L
same,MIC,[2]; 23502,4 mg/L
same,time stable in 10% FBS,[6],two
"KWKLFKKIGIGAVLKVLKKG-NH2 [T18,19K]",MBC,"[1]; free AMP, TSB, 4 × 10^5 cfu/ml",>512 mg/L
same,MIC,"[1]; free AMP, TSB, 4 × 10^5 cfu/ml",>512 mg/L
same,MBC,[2]; [9],64 mg/L
same,MIC,[2]; [9],64 mg/L
same,time stable in urine,[6],6 days
same,time stable in serum,[6]; single AMP coated by SDS on polystyrene,not stable
LKRLYKRVFRLLKRYYRQLRRPVR-OH [SAAP159],MBC,[1],>512 mg/L
same,MIC,[1],512 mg/L
same,MBC,[2]; 23502,64 mg/L
same,MIC,[2]; 23502,64 mg/L
same,time stable in human urine,[6],at least three
same,time stable in urine,[6],12 days
"Polymyxin B [PXB, reference compound]",Potency (x) Hemolysis of RBC HC50,[3],<1 x
same,"Potency (x) MIC to E. coli, Serum",[4],512 x
same,"Potency (x) MIC to E. coli, Urine",[4],128 x
same,Potency (x) Cytotoxicity to NTUB1 IC50,[5],<1 x
RFRRLRKKWRKRLKKI-NH2 [T9W],MBC,[1],>512 mg/L
same,MIC,[1],>512 mg/L
same,MBC,[2]; 23502,>512 mg/L
same,MIC,[2]; 23502,>512 mg/L
same,antimicrobial activity by inhibition zone (in words),[8],preferentially killed
same,time stable in urine,[6],6 days
RGLRRLGRKIVHVVKKYLPTVLRIIRIA-NH2 [SMAP28-3],time stable in human urine,[6],at least three
RGLRRLGRKIVHVVKKYLPTVLRIIRRL-NH2 [SMAP28-3 + 2],MBC,[1],32 mg/L
same,MIC,[1],32 mg/L
same,MBC,[2]; 23502,8 mg/L
same,MIC,[2]; 23502,4 mg/L
same,time stable in human urine,[6],at least three
same,time stable in 10% FBS,[6],one
